Source: patent US6525001B1, “Substituted pyrimidine and pyridine herbicides” (Mid-American Commercialization Corporation, priority 1997, dated 2003)

How the values were obtained:
Format in all cases: in vivo
Design in all cases: key: 0 is no effect; 10 is complete control
[1] = test system: duck salad (Heteranthera limosa); test: Test B flood test
Method in brief: (§1)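 Flood test on plants grown to the 2-leaf stage; treated plants kept in greenhouse twelve to sixteen days, then visually rated against controls on a 0 (no effect) to 10 (complete control) scale.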

[2] = test system: smallflower flatsedge (Cyperus difformis); test: Test B flood test
Method in brief: as §1

[3] = test system: bamyardgrass (Echinochloa crus-galli); test: Test B flood test
Method in brief: as §1

rice (Oryza sativa) = test: Test B flood test
Method in brief: as §1

[4] = test system: purple nutsedge (Cyperus rotundus); test: Test B pre-/postemergence; conditions: for Plant response rating, Nutsedge: Preemergence
Method in brief: (§2)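 Scored visually 0 (none) to 10 (complete control) against untreated plants after twelve to sixteen greenhouse days. Test chemicals, formulated in surfactant-containing non-phytotoxic solvent, applied to soil after planting and, separately, onto 1- to 4-leaf (2–18 cm) plants.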

[5] = test system: wheat (Triticum aestivum); test: Test B pre-/postemergence; conditions: for Plant response rating, Wheat: Preemergence; for Wheat plant response rating: Postemergence
Method in brief: as §2

[6] = test system: sugar beet (Beta vulgaris); test: Test B pre-/postemergence; conditions: for Plant response rating, Sugarbeets: Preemergence; for Sugarbeets plant response rating: Postemergence
Method in brief: as §2

[7] = test system: broadleaf signalgrass (Brachiaria decumbens); test: Test B pre-/postemergence
Method in brief: as §2

corn (Zea mays) = test: Test B pre-/postemergence; conditions: for Plant response rating, Corn: Preemergence; for Corn plant response rating: Postemergence
Method in brief: as §2

[8] = test system: momingglory (Ipomoea hederacea); test: Test B pre-/postemergence; conditions: for Plant response rating, Morningglory: Preemergence; for Morningglory plant response rating: Postemergence
Method in brief: as §2

[9] = test system: bedstraw (Galium aparine); test: Test B pre-/postemergence; conditions: for Plant response rating, Bedstraw: Preemergence; for Bedstraw plant response rating: Postemergence
Method in brief: as §2

[10] = test system: blackgrass (Alopecurus myosuroides); test: Test B pre-/postemergence; conditions: for Plant response rating, Blackgrass: Preemergence; for Blackgrass plant response rating: Postemergence
Method in brief: as §2

[11] = test system: crabgrass (Digitaria sanguinalis); test: Test B pre-/postemergence; conditions: for Plant response rating, Crabgrass: Preemergence; for Crabgrass plant response rating: Postemergence
Method in brief: as §2

[12] = test system: cocklebur (Xanthium strumarium); test: Test B pre-/postemergence; conditions: for Plant response rating, Cocklebur: Preemergence; for Cocklebur plant response rating: Postemergence
Method in brief: as §2

wild oat (Avena fatua) = test: Test B pre-/postemergence; conditions: for Plant response rating, Wild oats: Preemergence; for Wild oats plant response rating: Postemergence
Method in brief: as §2

[13] = test system: velvetleaf (Abutilon theophrasti); test: Test B pre-/postemergence; conditions: for Velvetleaf plant response rating: Postemergence
Method in brief: as §2

[14] = test system: giant foxtail (Setaria faberii); test: Test B pre-/postemergence; conditions: for Plant response rating, Giant foxtail: Preemergence; for Giant foxtail plant response rating: Postemergence
Method in brief: as §2

rape (Brassica napus) = test: Test B pre-/postemergence; conditions: for Plant response rating, Rape: Preemergence; for Rape plant response rating: Postemergence
Method in brief: as §2

[15] = test system: pigweed (Amaranthus retroflexus); test: Test B pre-/postemergence; conditions: for Plant response rating, Redroot pigweed: Preemergence; for Redroot pigweed plant response rating: Postemergence
Method in brief: as §2

soybean (Glycine max) = test: Test B pre-/postemergence; conditions: for Plant response rating, Soybean: Preemergence; for Soybean plant response rating: Postemergence
Method in brief: as §2

[16] = Rate 62 g/ha, Postemergence (flood test)
[17] = Rate 125 g/ha, Postemergence section (flood test species)

Structure (SMILES): CCc1cnc(-n2ccc(C(F)(F)F)n2)nc1C(=O)c1cccc(C(F)(F)F)c1 [Compound 69]
- Ducksalad plant response rating [1, 16]: 0
- Ducksalad plant response rating [1, 17]: 1
- S. Flatsedge plant response rating [2, 16]: 2
- S. Flatsedge plant response rating [2, 17]: 4
- Barnyardgrass plant response rating [3, 16]: 1
- Barnyardgrass plant response rating [3, 17]: 2
- Rice plant response rating (rice (Oryza sativa); [16]): 0
- Rice plant response rating (rice (Oryza sativa); [17]): 2
- Plant response rating, Nutsedge ([4]; Rate 62 g/ha, scale of 0 to 10): 0
- Nutsedge plant response rating ([4]; Rate 62 g/ha, Postemergence): 2
- Plant response rating, Nutsedge ([4]; Rate 125 g/ha): 0
- Plant response rating, Wheat ([5]; Rate 62 g/ha, scale of 0 to 10): 1
- Wheat plant response rating ([5]; Rate 62 g/ha): 3
- Wheat plant response rating ([5]; Rate 125 g/ha): 4
- Plant response rating, Wheat ([5]; Rate 125 g/ha): 1
- Plant response rating, Sugarbeets ([6]; Rate 62 g/ha, scale of 0 to 10): 9
- Sugarbeets plant response rating ([6]; Rate 62 g/ha): 10
- Sugarbeets plant response rating ([6]; Rate 125 g/ha): 10
- Plant response rating, Sugarbeets ([6]; Rate 125 g/ha): 9
- B. signalgrass plant response rating ([7]; Rate 62 g/ha, Postemergence): 3
- B. signalgrass plant response rating ([7]; Rate 62 g/ha, Preemergence): 8
- B. signalgrass plant response rating ([7]; Rate 125 g/ha, Postemergence): 3
- Plant response rating, B. signalgrass ([7]; Rate 125 g/ha, Preemergence): 9
- Plant response rating, Corn (corn (Zea mays); Rate 62 g/ha, scale of 0 to 10): 0
- Corn plant response rating (corn (Zea mays); Rate 62 g/ha): 2
- Corn plant response rating (corn (Zea mays); Rate 125 g/ha): 2
- Plant response rating, Corn (corn (Zea mays); Rate 125 g/ha): 0
- Plant response rating, Morningglory ([8]; Rate 62 g/ha, scale of 0 to 10): 8
- Morningglory plant response rating ([8]; Rate 62 g/ha): 9
- Morningglory plant response rating ([8]; Rate 125 g/ha): 10
- Plant response rating, Morningglory ([8]; Rate 125 g/ha): 8
- Plant response rating, Bedstraw ([9]; Rate 62 g/ha, scale of 0 to 10): 7
- Bedstraw plant response rating ([9]; Rate 62 g/ha): 9
- Bedstraw plant response rating ([9]; Rate 125 g/ha): 9
- Plant response rating, Bedstraw ([9]; Rate 125 g/ha): 9
- Plant response rating, Blackgrass ([10]; Rate 62 g/ha, scale of 0 to 10): 1
- Blackgrass plant response rating ([10]; Rate 62 g/ha): 2
- Blackgrass plant response rating ([10]; Rate 125 g/ha): 3
- Plant response rating, Blackgrass ([10]; Rate 125 g/ha): 4
- Plant response rating, Crabgrass ([11]; Rate 62 g/ha, scale of 0 to 10): 6
- Crabgrass plant response rating ([11]; Rate 62 g/ha): 3
- Crabgrass plant response rating ([11]; Rate 125 g/ha): 4
- Plant response rating, Crabgrass ([11]; Rate 125 g/ha): 9
- Plant response rating, Cocklebur ([12]; Rate 62 g/ha, scale of 0 to 10): 0
- Cocklebur plant response rating ([12]; Rate 62 g/ha): 8
- Cocklebur plant response rating ([12]; Rate 125 g/ha): 8
- Plant response rating, Cocklebur ([12]; Rate 125 g/ha): 2
- Plant response rating, Wild oats (wild oat (Avena fatua); Rate 62 g/ha, scale of 0 to 10): 4
- Wild oats plant response rating (wild oat (Avena fatua); Rate 62 g/ha): 3
- Wild oats plant response rating (wild oat (Avena fatua); Rate 125 g/ha): 3
- Plant response rating, Wild oats (wild oat (Avena fatua); Rate 125 g/ha): 7
- Velvetleaf plant response rating ([13]; Rate 62 g/ha): 8
- Velvetleaf plant response rating ([13]; Rate 125 g/ha): 8
- Plant response rating, Velvetleaf ([13]; Rate 125 g/ha, Preemergence): 8
- Plant response rating, Giant foxtail ([14]; Rate 62 g/ha, scale of 0 to 10): 4
- Giant foxtail plant response rating ([14]; Rate 62 g/ha): 2
- Giant foxtail plant response rating ([14]; Rate 125 g/ha): 3
- Plant response rating, Giant foxtail ([14]; Rate 125 g/ha): 8
- Plant response rating, Rape (rape (Brassica napus); Rate 62 g/ha, scale of 0 to 10): 7
- Rape plant response rating (rape (Brassica napus); Rate 62 g/ha): 6
- Rape plant response rating (rape (Brassica napus); Rate 125 g/ha): 8
- Plant response rating, Rape (rape (Brassica napus); Rate 125 g/ha): 8
- Plant response rating, Redroot pigweed ([15]; Rate 62 g/ha, scale of 0 to 10): 8
- Redroot pigweed plant response rating ([15]; Rate 62 g/ha): 10
- Redroot pigweed plant response rating ([15]; Rate 125 g/ha): 10
- Plant response rating, Redroot pigweed ([15]; Rate 125 g/ha): 10
- Plant response rating, Soybean (soybean (Glycine max); Rate 62 g/ha, scale of 0 to 10): 0
- Soybean plant response rating (soybean (Glycine max); Rate 62 g/ha): 4
- Soybean plant response rating (soybean (Glycine max); Rate 125 g/ha): 4
- Plant response rating, Soybean (soybean (Glycine max); Rate 125 g/ha): 1
